Data taken from patent US20160024051A1, “SALTS AND SOLID FORMS OF ISOQUINOLINONES AND COMPOSITION COMPRISING AND METHODS OF USING THE SAME” (INFINITY PHARMACEUTICALS, INC., priority 2013, published 2016).

Legend:
[1] = Storage at 40° C./75% RH (elevated humidity) for 1 week, re-analysis by XRPD/HPLC; conditions: for Storage 40° C./75% RH: salt screen solids, 1 week, XRPD pattern or observation
Method: The crystalline solids were filtered, dried at ambient conditions, and stored at 40° C./75% RH for 1 week and analyzed by ^1H NMR/IC.
Samples from the screen using amorphous free base Compound 1 were analysed by ^1H-NMR and DSC, and re-analysis by XRPD was also carried out after drying at 50° C./vacuum and storage at 40° C./75% RH (the same sample was dried and stored at elevated humidity).

[2] = Solubility of free base hydrate and salts versus pH (Table 24); assay type: physicochemical
[3] = Gravimetric vapour sorption (GVS); assay type: physicochemical; conditions: for GVS: moisture on loading: loaded at 40% RH, 25° C.; for GVS: XRPD after the experiment: re-analysis by XRPD after GVS
Method: Sorption isotherms were obtained using a Hiden IGASorp moisture sorption analyser, controlled by CFRSorp software. The sample temperature was maintained at 25° C. by a Huber re-circulating water bath. The humidity was controlled by mixing streams of dry and wet nitrogen, with a total flow rate of 250 ml/min. The relative humidity (RH) was measured by a calibrated Vaisala RH probe (dynamic range of 0-95% RH), located near the sample. The weight change, (mass relaxation) of the sample as a function of % RH was constantly monitored by the microbalance (accuracy ±0.001 mg). Typically 10-20 mg of sample was placed in a tared mesh stainless steel basket under ambient conditions. The sample was loaded and unloaded at 40% RH and 25° C. (typical room conditions). A moisture sorption isotherm was performed as outlined below (2 scans giving 1 complete cycle). The standard isotherm was performed at 25° C. at 10% RH intervals over a 0-90% RH range.
The software uses a least squares minimisation procedure together with a model of the mass relaxation, to predict an asymptotic value. The measured mass relaxation value must be within 5% of that predicted by the software, before the next % RH value is selected. The minimum equilibration time was set to 1 hour and the maximum to 4 hours. The sample was recovered after completion of the isotherm and re-analysed by XRPD.

[4] = Polymorphism study: maturation (temperature cycling RT to 50° C.) in solvents, XRPD; assay type: physicochemical
Method: One of 21 solvents was added to each vial in a number of aliquots (up to 30 volumes), with shaking. All the samples were then placed under maturation between RT to 50° C. (4 hours at each temperature) for 3 days. After maturation the samples were analysed by XRPD. Clear solutions were cooled to −20° C. (freezer). If no precipitation occurred samples were evaporated at RT.
Samples were placed under maturation between RT-50° C. (4 hours cycle) for 3 days. After maturation the samples were analyzed by XRPD. Clear solutions were then cooled to −20° C. (freezer). If no precipitation occurred, samples were evaporated at RT.
The corresponding solvents and solvent mixtures were added in portions of (a total of) 5, 10, 20, and 30 volumes at 50° C., with shaking, aiming for clear solutions. After each addition, the vials were allowed to shake for 20 minutes, after which observations were made. Solutions were allowed to evaporate, whereas slurries were set for 8 hour temperature cycling maturation, between RT and 50° C., for 5 days.
The oils obtained by solvent evaporation were used for the maturation screen. Anhydrous solvents (5 volumes; 100 μL) were used in order to minimise the amount of water present. Any solutions were allowed to slowly evaporate, whereas slurries were set for 8 hour temperature cycling maturation, between RT and 50° C. […] These were matured for a further 24 hours before performing XRPD analysis.
The selected solvents and solvent mixtures (5 to 20 volumes) were added with stirring. Any solutions were allowed to slowly evaporate, whereas slurries were set for 8 hour temperature cycling maturation, between RT and 50° C., for 2 days.
Crystals were ground in order to analyse them by XRPD. Suspensions were set for temperature cycling for a total of five days after which time XRPD analysis was carried out.

[5] = Solubility assessment using FB Hydrate Form 2; assay type: physicochemical; conditions: for Solubility: (RT)
Method: The best solvent systems (clear solutions) were methanol:anisole 1:1 and DMSO (10 volumes, at RT), dioxane (10 volumes, 50° C.), chloroform (20 volumes, RT). […]

## COc1cc(-c2cccc3cc([C@H](C)Nc4nc(N)ncc4C#N)n(-c4ccccc4)c(=O)c23)ccn1 [listing 1 of 2 here]
[1]; listed as 2-Hydroxyethane sulfonic acid
  Storage 40° C./75% RH: Deliquesced

## COc1cc(-c2cccc3cc([C@H](C)Nc4nc(N)ncc4C#N)n(-c4ccccc4)c(=O)c23)ccn1.O=C(O)/C=C\C(=O)O [Maleic acid salt]
[2]; 0.1N HCl, 37° C., at saturation
  Solubility: 34 mg/mL
[2]; Simulated Gastric Fluid
  Solubility: >19 mg/mL
[2]; Simulated Intestinal Fluid
  Solubility: 0.01 mg/mL
[2]; Water (pH 4.43)
  Solubility: ~0.2 mg/mL (pH 4.43)
[2]; citrate buffer, pH 2.5, at 37° C.
  Solubility: 3.13 mg/mL at 37 °C
[2]; citrate buffer, pH 2.5, at RT
  Solubility: 1.8 mg/mL at RT;
[2]; pH 1.6, 37° C.
  Solubility: >4
[2]; pH 1.6, RT
  Solubility: >4
[2]; pH 2.5, 37° C.
  Solubility: 3.07
[2]; pH 2.5, RT
  Solubility: 3.57
[2]; pH 2.9, 37° C.
  Solubility: 1.62
[2]; pH 2.9, RT
  Solubility: 1.39
[2]; pH 3.8, 37° C.
  Solubility: 0.31
[2]; pH 3.8, RT
  Solubility: 0.24

## CC(=O)O.COc1cc(-c2cccc3cc([C@H](C)Nc4nc(N)ncc4C#N)n(-c4ccccc4)c(=O)c23)ccn1.COc1cc(-c2cccc3cc([C@H](C)Nc4nc(N)ncc4C#N)n(-c4ccccc4)c(=O)c23)ccn1 [Batch 1 of Form 6]
[3]; between 0-90% RH
  GVS: second cycle reversible moisture uptake: cycle shows 4.9%
[3]
  GVS: moisture on loading: 6.3% w/w moisture on
  GVS: XRPD after the experiment: anhydrous Form 4

## COc1cc(-c2cccc3cc([C@H](C)Nc4nc(N)ncc4C#N)n(-c4ccccc4)c(=O)c23)ccn1.O=S(=O)(O)O.O=S(=O)(O)O [Amorphous Bis-Sulfuric Acid Salt]
[4]; amorphous oil in anhydrous BuOAc 100 μL, maturation 48 h, RT-50° C. cycling
  XRPD: Amorphous
[4]; amorphous oil in anhydrous DCM 100 μL, maturation 48 h, RT-50° C. cycling
  XRPD: Amorphous
[4]; amorphous oil in anhydrous DIPE 100 μL, maturation 48 h, RT-50° C. cycling
  XRPD: Amorphous
[4]; amorphous oil in anhydrous Dioxane 100 μL, maturation 48 h, RT-50° C. cycling
  XRPD: Amorphous glass
[4]; amorphous oil in anhydrous EtOAc 100 μL, maturation 48 h, RT-50° C. cycling
  XRPD: Amorphous
[4]; amorphous oil in anhydrous IPA 100 μL, maturation 48 h, RT-50° C. cycling
  XRPD: Amorphous glass
[4]; amorphous oil in anhydrous Methanol 100 μL, solution set for evaporation
  XRPD: Oil
[4]; amorphous oil in anhydrous TBME 100 μL, maturation 48 h, RT-50° C. cycling
  XRPD: Amorphous
[4]; amorphous oil in anhydrous THF 100 μL, maturation 48 h, RT-50° C. cycling
  XRPD: Amorphous
[4]; amorphous oil in anhydrous Toluene 100 μL, maturation 48 h, RT-50° C. cycling
  XRPD: Amorphous

## COc1cc(-c2cccc3cc([C@H](C)Nc4nc(N)ncc4C#N)n(-c4ccccc4)c(=O)c23)ccn1 [Form 4 of Free Base Compound 1]
[3]; between 70-90% RH, with hysteresis on desorption
  GVS: moisture uptaken: 4.8 % w/w
[3]
  GVS: moisture on loading: 0.3 % w/w
  GVS: XRPD after the experiment: No changes by XRPD after the experiment.

## COc1cc(-c2cccc3cc([C@H](C)Nc4nc(N)ncc4C#N)n(-c4ccccc4)c(=O)c23)ccn1.O [FB Hydrate Form 2]
[4]; FB Hydrate Form 2 in 1-butanol, Maturation
  XRPD: Crystalline Form 5
[4]; FB Hydrate Form 2 in 2-MeTHF, Evaporation yielded oil, maturation of oil
  XRPD: Crystalline Form 5
[4]; FB Hydrate Form 2 in Acetone, Maturation
  XRPD: Crystalline Form 5
[4]; FB Hydrate Form 2 in DCM:MeOH 1:1, Crystallization in fridge
  XRPD: Crystalline Form 5 + Form 1
[4]; FB Hydrate Form 2 in DCM, Crystallization in fridge
  XRPD: Crystalline Form 5
[4]; FB Hydrate Form 2 in DMSO, No crystallization in fridge, set for evaporation
  XRPD: Amorphous
[4]; FB Hydrate Form 2 in Dioxane, Evaporation yielded oil, maturation of oil
  XRPD: Crystalline Form 5 + Form 3
[4]; FB Hydrate Form 2 in EtOAc, Maturation
  XRPD: Crystalline Form 5
[4]; FB Hydrate Form 2 in EtOH/5% water, Maturation
  XRPD: Crystalline Form 5
[4]; FB Hydrate Form 2 in EtOH/water 1:1, Maturation
  XRPD: Crystalline Form 2
[4]; FB Hydrate Form 2 in EtOH, Maturation
  XRPD: Crystalline Form 5
[4]; FB Hydrate Form 2 in IPA, Maturation
  XRPD: Crystalline Form 5
[4]; FB Hydrate Form 2 in IPAc, Maturation
  XRPD: Crystalline Form 5
[4]; FB Hydrate Form 2 in MIBK, Maturation
  XRPD: Crystalline Form 5
[4]; FB Hydrate Form 2 in MeCN/5% water, Crystallization in fridge
  XRPD: Crystalline Form 5
[4]; FB Hydrate Form 2 in MeOH/anisole, Crystallization in fridge
  XRPD: Crystalline Form 5
[4]; FB Hydrate Form 2 in THF, Crystallization in fridge
  XRPD: Crystalline Form 5
[4]; FB Hydrate Form 2 in acetonitrile, Maturation
  XRPD: Crystalline Form 5
[4]; FB Hydrate Form 2 in chloroform, Cooling in fridge yielded oil, maturation of oil
  XRPD: Crystalline Form 5
[5]; 2-MeTHF, 50 vols
  Solubility at 50° C.: ✓
[5]; DCM, 75 vols
  Solubility at 50° C.: ✓
[5]; DCM:MeOH 1:1, 75 vols
  Solubility at 50° C.: ✓
[5]; DMSO, 10 vols
  Solubility: ✓
[5]; Dioxane, 10 vols
  Solubility at 50° C.: ✓
[5]; MeCN/5% water, 75 vols
  Solubility at 50° C.: ✓
[5]; MeOH/anisole, 10 vols
  Solubility: ✓
[5]; THF, 50 vols
  Solubility at 50° C.: Almost
[5]; THF, 75 vols
  Solubility at 50° C.: ✓
[5]; chloroform, 20 vols
  Solubility: ✓

## COc1cc(-c2cccc3cc([C@H](C)Nc4nc(N)ncc4C#N)n(-c4ccccc4)c(=O)c23)ccn1 [listing 2 of 2 here]
[1]; listed as 1-2-Ethane disulfonic acid
  Storage 40° C./75% RH: acid salt Pattern 1

## COc1cc(-c2cccc3cc([C@H](C)Nc4nc(N)ncc4C#N)n(-c4ccccc4)c(=O)c23)ccn1 [Form 6 of the free base of Compound 1]
[3]; text statements, listed as Form 6
  GVS behaviour (hydration / desolvation): Desolvation to the anhydrous Form 4
[1]; elevated humidity conditions, not specified in the sentence, listed as Form 6
  solid form after storage at elevated humidity: conversion to Hydrate Form 3
